Experimental data taken from US8637493B2, “Methods for treating glioblastoma” (University of Massachusetts, priority 2009, dated 2014).
“And” between values parts separate entries of the source, which are not always exact repeats. Identical values can stand only once.

Legend:
[1] = in vivo; cited from earlier work
GS7-2 = assay: Neurosphere formation / recovery / secondary neurosphere assay, GS7-2; assay type: cell-based, human
Method: (§1) The effect of chemotherapy on neurosphere formation was assayed in glioma neurosphere cultures. Cultures are treated with a single dose of the agent, e.g., TMZ and multiple doses of a GSI, e.g., DAPT to inhibit the Notch pathway. After the Treatment phase, the number of initial spheres (counted about 7 days after TMZ treatment) represents the number of proliferating CSC/progenitors (FIG. 1 for schematic). Recovery (counted 14 days after TMZ treatment) includes enlargement of the initial spheres and new spheres formed when CSC/progenitor cells quiescent as a result of chemotherapy resume cell proliferation. […] The cells used included U87NS, a neurosphere culture converted to neurosphere growth in defined medium from U87MG (an old Swedish line that is grown in conventional serum conditions); GS7-2, GS8-26 and GS6-22 primary neurosphere cultures that were obtained from grade IV GBM patient tumor samples and AS5-15, which was obtained from a grade III anaplastic astrocytoma.
(§2) To determine the effects of TMZ plus DAPT neurospheres, cells were plated as previously described (Mihaliak et al., Cancer Letts. 296, 168-177 (2010)). Immediately after plating, cells were treated with DMSO, DAPT-only, LY411,575 (LY)-only TMZ-only, TMZ+DAPT or TMZ+LY. The initial neurospheres were counted on day 7 for the converted cell lines and on day 10 for the slower growing primary lines. Neurosphere recovery was measured on day 14 or 20. The neurospheres were dissociated, re-plated and secondary neurosphere formation was measured on day 21 or 30.
(§3) Neurosphere cultures were dissociated to single cell suspensions by pH dissociation followed by filtration through 40 μm screens. For the neurosphere assay, 3,000 cells/ml of defined medium were seeded in 6-well plates. Immediately after plating, cells were treated with DMSO (Research Organics, Cleveland, Ohio) carrier control, TMZ-only, DAPT-only, or TMZ+DAPT. Additional DAPT was added on days 2 and 4. Neurospheres consisting of 10 or more cells were counted under a light microscope on day 7 for the converted cell lines. Primary lines have a slightly longer doubling time and were counted on day 10. After counting the neurospheres from the initial treatment, 2 ml of fresh defined medium was added to each well. DAPT was also added once more to the DAPT-only and TMZ+DAPT samples, and the cells were incubated for an additional 7 or 10 days. Neurospheres from the recovery period were counted on day 14 or day 20. To analyze secondary neurosphere formation, cells were collected, pelleted and dissociated to a single cell suspension by the pH method. Cells from each well were re-seeded into 6-well plates with 2 ml of defined medium. The number of secondary neurospheres formed by converted cell lines and primary cultures were counted on day 21 or day 30, respectively. All recovery assays were repeated with a minimum of 6 replicate sets of time points.
(§4) For the samples labeled “PRE-treat”, a single dose of DAPT was administered when the cells were plated, and then TMZ was added to the medium 24 hours later. For the “CO-treat” samples, single doses of TMZ and DART were added simultaneously when the cells were plated. Finally, samples labeled “POST-treat” were treated with TMZ, and then DAPT was added 24 hours later.

U87NS = assay: Neurosphere formation / recovery / secondary neurosphere assay, U87NS; assay type: cell-based, human
Method: as §1, §2, §3, §4

U373NS [2] = assay: Neurosphere formation / recovery / secondary neurosphere assay, U373NS; assay type: cell-based, human
Method: as §1, §2, §3

U373NS [3] = assay: Ex vivo treated cells, subcutaneous xenograft tumor initiation, U373NS; assay type: in vivo, nude mice; details: 3 × 10^6 live cells injected, TMZ 200 μM, DAPT 5 μM
Method: (§5) U87NS and U373NS neurospheres were dissociated and 2.5×10^4 cells/ml were plated in defined media and treated with DMSO, TMZ-only (200 μM), DAPT-only (1 μM or 5 μM), or TMZ+DAPT as described for recovery assays. After 7 days, 3×10^6 live cells were counted using trypan blue and re-suspended in 100 μl PBS. Cells were subcutaneously injected into the flanks of nude mice. Mice were monitored for tumor formation for up to 120 days post-injection and euthanized when tumors reached volumes of 1.5 to 2 cm^3.
as §5, with “U373NS” for “U87NS and U373NS”, “(FIG. 8B and Table 1).” for “as described for recovery assays.”, “cm^3. The control DMSO cells formed palpable tumors in an average of 15 days for 7/7 xenografts, and DAPT-only treated cells formed tumors in an average of 16 days for 7/7 xenografts. […] Palpable tumors formed for 6/7 TMZ-treated U373NS xenografts in an average of 43 days. […] Only 1/7 mice formed a tumor in the TMZ+DAPT U373NS xenografts with an extended latency of 96 days.” for “cm^3.”

U87NS cells = assay: Ex vivo treated cells, subcutaneous xenograft tumor initiation, U87NS; assay type: in vivo, nude mice
Method: U87NS cells were treated in vitro as follows. The cells were dissociated and 2.5×10^4 cells/ml were plated defined media and treated with DMSO, TMZ-only (200 μM), DAPT-only (1 μM or 5 μM), or TMZ+DAPT as described for recovery assays (FIG. 8A and Table 1). After 7 days, 2.5×10^5 live cells were counted using trypan blue and re-suspended in 100 μl PBS and subcutaneously injected into nude mice. Mice were monitored for tumor formation for up to 120 days post-injection and euthanized when tumors reached volumes of 1.5 to 2 cm3. Tumor initiation was observed when a palpable tumor formed. […] Impressively, none of the mice injected with TMZ+DAPT treated cells (0/7 mice) formed tumors, even after 90 days. When a higher number of live U87NS cells (3×10^6) were injected, we saw a similar trend (Table 1). Mice with 3×10^6 cells for U87NS DMSO (2/2 mice) and DAPT-only (2/2 mice) xenografts developed palpable tumors at 3 and 4 days, respectively, and 3/4 mice formed tumors in TMZ-only treated cells with an average latency of 25 days. With this higher number of cells injected, U87NS TMZ+DAPT xenografts formed tumors in only 1/4 mice with a longer latency of 43 days.
as §5

[4] = secondary neurospheres divided by recovery neurospheres
[5] = 2.5 × 10^5 live cells injected, TMZ 200 μM, DAPT 1 μM
[6] = 10 μM DAPT alone, counted day 7
[7] = low concentrations (1-5 μM) DAPT-only, day 7

For `Cn1nnc2c(C(N)=O)ncn2c1=O` [TMZ, temozolomide], the “concentration of TMZ in the cerebral spinal fluid” value [1] is listed as “about 5 μM”, the “secondary neurosphere formation relative to DAPT POST-treatment” value (GS7-2; TMZ-only treatment, P<0.0001) is listed as 85.7 fold and the “recovery: increase in the number of neurospheres” value (shortened to “recovery: increase in the number”) (GS7-2; day 20 relative to day 10, DAPT 1 μM) is listed as 1.8 fold. For the same compound, the “secondary neurosphere formation, TMZ-only treated culture relative to TMZ+DAPT treated culture” value (GS7-2; day 30, P<0.001) was 45 fold, the “average number of cells per neurosphere capable of self-renewal” value (GS7-2; [4]) was 38 cells per neurosphere and the “secondary neurosphere formation relative to DAPT POST-treatment” value (U87NS; TMZ-only treatment, P<0.001) was 5.7 fold. The “recovery: increase in the number” value (U87NS; day 14 relative to day 7, TMZ 200 μM, DAPT 1 μM) was 2 fold, the “secondary neurosphere formation, TMZ-only treated culture relative to TMZ+DAPT treated culture” value (U87NS; day 21, P<0.0001) was 36 fold and the “average number of cells per neurosphere capable of self-renewal” value (U87NS; [4]) was 8 cells per neurosphere. For the same compound, the “recovery: increase in the number” value (U373NS [2]; day 14 relative to day 7, TMZ 200 μM, DAPT 5 μM) was 1.5 fold, the “secondary neurosphere formation, TMZ-only treated culture relative to TMZ+DAPT treated culture” value (U373NS [2]; day 21, P<0.001) was 23 fold and the “average number of cells per neurosphere capable of self-renewal” value (U373NS [2]; [4]) was 3 cells per neurosphere. For the same compound, the “Ex vivo Treated Xenograft Average Latency” value (U373NS [3]) was 43 days and 45 days, the “Ex vivo Treated Xenograft Incidence” value (U373NS [3]) was 6/7 and the “Ex vivo Treated Xenograft Average Latency” value (U87NS cells; [5]) was 32 days. The “Ex vivo Treated Xenograft Incidence” value (U87NS cells; [5]) was 6/7, the “Ex vivo Treated Xenograft Average Latency” value (U87NS cells; 3 × 10^6 live cells injected) was 25 days and the “Ex vivo Treated Xenograft Incidence” value (U87NS cells; 3 × 10^6 live cells injected) was 3/4.

For `C[C@H](NC(=O)Cc1cc(F)cc(F)c1)C(=O)N[C@H](C(=O)OC(C)(C)C)c1ccccc1` [DAPT, N-[N-(3,5-difluorophenacetyl)-L-alanyl]-(S)-phenylglycine t-butyl ester], the “decrease of neurosphere formation compared to DMSO controls” value (from here on “decrease of neurosphere formation”) (GS7-2; 10 μM DAPT alone, counted day 10) was 49%, the “inhibition of neurosphere formation” value (GS7-2; low concentrations (1-5 μM) DAPT-only, day 10) was “minimal inhibition” and the “decrease of neurosphere formation” value (U87NS; [6]) was 41%. For the same compound, the “inhibition of neurosphere formation” value (U87NS; [7]) was “minimal inhibition”, the “decrease of neurosphere formation” value (U373NS [2]; [6]) was 39% and the “inhibition of neurosphere formation” value (U373NS [2]; [7]) was “minimal inhibition”. For the same compound, the “Ex vivo Treated Xenograft Average Latency” value (U373NS [3]) was 16 days, the “Ex vivo Treated Xenograft Incidence” value (U373NS [3]) was 7/7 and the “Ex vivo Treated Xenograft Average Latency” value (U87NS cells; [5]) was 14 days. For the same compound, the “Ex vivo Treated Xenograft Incidence” value (U87NS cells; [5]) was 7/7, the “Ex vivo Treated Xenograft Average Latency” value (U87NS cells; 3 × 10^6 live cells injected) was 4 days and the “Ex vivo Treated Xenograft Incidence” value (U87NS cells; 3 × 10^6 live cells injected) was 2/2.
